In brackets after ≈: the same amount, converted by molar mass. Activity calls are given as the source filed them. No cut-off for these calls is given here.
Assays:
[1] = system: Mycobacterium tuberculosis; experiment: Bacteriostatic activity against rifampicin, isoniazid, streptomycin, ethambutol and pyrazinamide-resistant Mycobacterium tuberculosis MS-115 assessed as growth inhibition; type: functional
[2] = system: Mycobacterium tuberculosis; experiment: Bacteriostatic activity against rifampicin, isoniazid, streptomycin, ethambutol and pyrazinamide-resistant Mycobacterium tuberculosis MS-115 assessed as growth inhibition at 10 ug/mL relative to control; type: functional; conditions: read-out: GI
[3] = system: Mycobacterium tuberculosis; experiment: Bacteriostatic activity against rifampicin, isoniazid, streptomycin, ethambutol and pyrazinamide-resistant Mycobacterium tuberculosis MS-115 assessed as growth inhibition at 20 ug/mL relative to control; type: functional; conditions: read-out: GI
[4] = system: Mycobacterium tuberculosis; experiment: Bacteriostatic activity against rifampicin, isoniazid, streptomycin, ethambutol and pyrazinamide-resistant Mycobacterium tuberculosis MS-115 assessed as growth inhibition at 50 ug/mL relative to control; type: functional; conditions: read-out: GI
[5] = system: Mycobacterium tuberculosis; experiment: Bacteriostatic activity against rifampicin, isoniazid, streptomycin, ethambutol and pyrazinamide-resistant Mycobacterium tuberculosis MS-115 assessed as growth inhibition at 2 to 200 ug/mL relative to control; type: functional, organism-based
[6] = system: Mycobacterium tuberculosis; experiment: Bacteriostatic activity against rifampicin, isoniazid, streptomycin, ethambutol and pyrazinamide-resistant Mycobacterium tuberculosis MS-115 assessed as growth inhibition at 5 ug/mL relative to control; type: functional; conditions: read-out: GI
[7] = system: Mycobacterium tuberculosis; experiment: Bacteriostatic activity against rifampicin, isoniazid, streptomycin, ethambutol and pyrazinamide-resistant Mycobacterium tuberculosis MS-115 assessed as growth inhibition at 2 ug/mL relative to control; type: functional; conditions: read-out: GI
[8] = system: Mycobacterium tuberculosis; experiment: Bacteriostatic activity against rifampicin, isoniazid, streptomycin, ethambutol and pyrazinamide-resistant Mycobacterium tuberculosis MS-115 assessed as growth inhibition at 200 ug/mL relative to control; type: functional; conditions: read-out: GI

Row | SMILES | MIC99 [1] | inhibition of growth at 10 µg/mL [2] | inhibition of growth at 20 µg/mL [3] | inhibition of growth at 50 µg/mL [4] | growth inhibition (GI) [5] | inhibition of growth at 5 µg/mL [6] | inhibition of growth at 2 µg/mL [7] | inhibition of growth at 200 µg/mL [8]
1 | CCCCCCCCCCCCc1cn(Cc2cn([C@H]3C[C@H](O)[C@@H](CO)O3)c(=O)nc2N)nn1 | 10 µg/mL (≈ 21 µM) | 99% | 100% | 100% | – | – | – | –
2 | NC(=O)c1cnccn1 | – | – | – | – | inactive | – | – | –
3 | CCCCCCCCCCc1cn(Cc2cn([C@H]3C[C@H](O)[C@@H](CO)O3)c(=O)[nH]c2=O)nn1 | 10 µg/mL (≈ 22.2 µM) | 99% | 100% | 100% | – | 75% | – | –
4 | CC[C@@H](CO)NCCN[C@@H](CC)CO | – | – | – | – | inactive | – | – | –
5 | CC1COc2c(N3CCN(C)CC3)c(F)cc3c(=O)c(C(=O)O)cn1c23 (centres undefined) [OFLOXACIN] | 2 µg/mL (≈ 5.53 µM) | – | – | – | – | – | 100% | –
6 | NNC(=O)c1ccncc1 [ISONIAZID] | inactive | – | – | – | inactive | – | – | –
7 | CCCCCCCCCCCCc1cn(Cc2cn([C@H]3C[C@H](O)[C@@H](CO)O3)c(=O)[nH]c2=O)nn1 | 10 µg/mL (≈ 20.9 µM) | 99% | 99% | 100% | – | 90% | – | –
8 | CO[C@H]1/C=C/O[C@@]2(C)Oc3c(C)c(O)c4c(O)c(c(/C=N/N5CCN(C)CC5)c(O)c4c3C2=O)NC(=O)/C(C)=C\C=C\[C@H](C)[C@H](O)[C@@H](C)[C@@H](O)[C@@H](C)[C@H](OC(C)=O)[C@@H]1C [RIFAMPIN] | inactive | – | – | – | inactive | – | – | –
9 | CN[C@@H]1[C@H](O[C@H]2[C@H](O[C@H]3[C@H](O)[C@@H](O)[C@H](N=C(N)N)[C@@H](O)[C@@H]3N=C(N)N)O[C@@H](C)[C@]2(O)C=O)O[C@@H](CO)[C@H](O)[C@H]1O | – | – | – | – | inactive | – | – | –
10 | CCCCCCCCCCCCOCc1cn([C@H]2C[C@H](O)[C@@H](CO)O2)c(=O)[nH]c1=O | 50 µg/mL (≈ 117 µM) | – | – | 100% | – | – | 50% | 100%
11 | CCCCCCCCCCCCOCc1cn([C@H]2C[C@H](N)[C@@H](CO)O2)c(=O)[nH]c1=O | 20 µg/mL (≈ 47 µM) | – | 100% | 100% | – | – | – | 100%
12 | CCCCCCCCCCc1cn(Cc2cn([C@H]3C[C@H](O)[C@@H](CO)O3)c(=O)nc2N)nn1 | 50 µg/mL (≈ 111 µM) | – | 75% | 100% | – | – | – | –

— ChEMBL document CHEMBL2412960, “Inhibition of Mycobacterium tuberculosis strains H37Rv and MDR MS-115 by a new set of C5 modified pyrimidine nucleosides” (Bioorg Med Chem, 2013)
